# According to the supplement of paper PMC4862054:
# Columns and labels:
# Assay in all cases: normalised response (% of control), CellTox Green; higher = less cell death (100 = DMSO, 0 = benzethonium chloride kill control)
# Conditions in all cases: incubation time: 72 h
# MCF-10A = tested on: MCF-10A
# How it was run: (§1)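 CellTox Green fluorescence (485/520 nm) and, after 10 min at room temperature, CellTiter-Glo luminescence were read from breast cancer cell lines incubated 72 h in 384-well plates. Cells were seeded as 20 µl suspension onto compound at 5 concentrations in 10-fold steps over a 10,000-fold range chosen per compound. Each plate was normalised to 0.1 % DMSO (100) and a positive kill control (0). Values are normalised signals, one per concentration.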
# MDA-MB-231 = tested on: MDA-MB-231
# How it was run: as §1
# CAL-85-1 = tested on: CAL-85-1
# How it was run: as §1
# HCC1937 = tested on: HCC1937
# How it was run: as §1
# HCC1143 = tested on: HCC1143
# How it was run: as §1
# BT-549 = tested on: BT-549
# How it was run: as §1
# MDA-MB-436 = tested on: MDA-MB-436
# How it was run: as §1
# Hs578T = tested on: Hs578T
# How it was run: as §1
# CAL-148 = tested on: CAL-148
# How it was run: as §1
# HCC1599 = tested on: HCC1599
# How it was run: as §1
# MDA-MB-468 = tested on: MDA-MB-468
# How it was run: as §1
# BT-474 = tested on: BT-474
# How it was run: as §1
# CAL-51 = tested on: CAL-51
# How it was run: as §1
# CAL-120 = tested on: CAL-120
# How it was run: as §1
# DU-4475 = tested on: DU-4475
# How it was run: as §1
# MDA-MB-453 = tested on: MDA-MB-453
# How it was run: as §1
# MFM-223 = tested on: MFM-223
# How it was run: as §1
# HDQ-P1 = tested on: HDQ-P1
# How it was run: as §1
Compound,normalised response (MCF-10A) [%],normalised response (MDA-MB-231) [%],normalised response (CAL-85-1) [%],normalised response (HCC1937) [%],normalised response (HCC1143) [%],normalised response (BT-549) [%],normalised response (MDA-MB-436) [%],normalised response (Hs578T) [%],normalised response (CAL-148) [%],normalised response (HCC1599) [%],normalised response (MDA-MB-468) [%],normalised response (BT-474) [%],normalised response (CAL-51) [%],normalised response (CAL-120) [%],normalised response (DU-4475) [%],normalised response (MDA-MB-453) [%],normalised response (MFM-223) [%],normalised response (HDQ-P1) [%]
C=C1C[C@@H]2[C@H](CC[C@]3(C)C(=O)CC[C@@H]23)[C@@]2(C)C=CC(=O)C=C12 [Exemestane] (10000 nM),111,92.4,71.2,115,112,81.2,90,117,106,112,103,105,103,103,106,106,86.2,
COc1cc2ncnc(Nc3ccc(F)c(Cl)c3)c2cc1OCCCN1CCOCC1 [Gefitinib] (1000 nM),99.2,101,79.5,123,83.2,123,91.5,95.9,89.8,97.8,125,91,108,100,101,98.3,65.4,84.8
COc1cc2ncnc(Nc3ccc(F)c(Cl)c3)c2cc1OCCCN1CCOCC1 [Gefitinib] (10000 nM),82.9,68.6,45.8,98.2,113,114,98.4,102,48.3,96.9,133,17.4,104,95.4,96.9,79,104,94.9
O=C(Nc1ccncc1)C(=O)c1cn(Cc2ccc(Cl)cc2)c2ccccc12 [Indibulin] (1000 nM),87.2,51.6,48.8,68.1,93.6,117,80.4,94.6,96.3,104,91.5,92.1,40.5,89.4,101,106,71.8,107
NC(=O)c1ccc(I)c([N+](=O)[O-])c1 [Iniparib] (10000 nM),77.3,,142,107,,113,77.5,,101,100,146,89.9,83.7,88.8,94.3,99.6,95.6,
CCc1c2c(nc3ccc(OC(=O)N4CCC(N5CCCCC5)CC4)cc13)-c1cc3c(c(=O)n1C2)COC(=O)[C@]3(O)CC [Irinotecan] (1000 nM),,113,93.1,123,96.6,121,44.5,81.9,29.8,99.1,141,103,61.9,93.5,99.1,107,101,93.7
Oc1ccc2c(c1)CC[C@H](c1ccccc1)[C@@H]2c1ccc(OCCN2CCCC2)cc1 [Lasofoxifene] (100 nM),111,125,82.2,113,,113,104,84.9,62.9,95.2,111,103,123,93.6,105,88,,66
COCC1(CO)C(=O)C2CCN1CC2 (stereo unspecified) [Prima-1 Met] (10000 nM),106,123,74.2,,93,63.4,62.3,117,99.3,108,119,101,115,92.1,107,104,93.1,102
CNC(=O)c1cc(Oc2ccc(NC(=O)Nc3ccc(Cl)c(C(F)(F)F)c3)c(F)c2)ccn1 [Regorafenib] (1000 nM),101,115,103,122,,116,108,110,103,103,143,101,87.7,102,102,107,102,97.6
c1ccc2c(CCNc3ccc(Nc4ccncc4)cc3)c[nH]c2c1 [Serdemetan] (1000 nM),96.9,93.9,102,,,124,81.8,92.3,73.4,89.1,12.4,99.5,-44.2,97.1,94,102,97.8,99.7
CN(C)CCOc1ccc(/C(=C(/CCCl)c2ccccc2)c2ccccc2)cc1 [Toremifene] (1000 nM),108,,106,110,118,99.3,70.4,55.3,89.1,95.5,101,100,102,99,99.9,106,92.4,
CN(C)CCOc1ccc(/C(=C(/CCCl)c2ccccc2)c2ccccc2)cc1 [Toremifene] (10000 nM),69.2,47.6,79.9,-3.77,,82,91.7,103,59.6,80.3,9.03,22.9,104,91.8,94.6,86.4,94.7,103
